Data published in patent publication US20100028889A1, “COMPANION DIAGNOSTIC ASSAYS FOR CANCER THERAPY” (ABBOTT LABORATORIES, priority 2006, published 2010).
Read-outs that look alike come from different tables or passages of the source.

Assays:
Test in all cases: cell cytotoxicity EC50, CellTiter Glo, leukemia/lymphoma cell line
Format in all cases: cell-based, human
CCRF-CEM = test system: CCRF-CEM
Method: (§1) The SCLC and leukemia/lymphoma cell lines listed below were obtained from the American Type Culture Collection (Manassas, Va.), Deutsche Sammlung von Mikroorganismen und Zellkulturen (DSMZ, Braunsweig, Germany), or were the generous gift from Dr. Louis Staudt (National Cancer Institute) and were cultured as described in Tse, C., Shoemaker, A. R., Adickes, J., et al., “ABT-263: a potent and orally bioavailable Bcl-2 family inhibitor,” Cancer Res 2008; 68: 3421-3428; and Tahir, S. K., Yang, X., Anderson, M. G., et al., “Influence of Bcl-2 family members on the cellular response of small-cell lung cancer cell lines to ABT-737,” Cancer Res 2007; 67: 1176-1183.
(§2) Cells were treated at 10,000 or 50,000 cells per well for adherent or suspension cells, respectively, in 96-well microtiter plates in the presence of 10% human serum for 48 hours with or without ABT-263, in a humidified chamber with 5% CO2. ABT-263 was synthesized as previously described in Tse, C., Shoemaker, A. R., Adickes, J., et al., “ABT-263: a potent and orally bioavailable Bcl-2 family inhibitor,” Cancer Res 2008; 68: 3421-3428; and Oltersdorf, T., Elmore, S. W., Shoemaker, A. R., et al., “An inhibitor of Bcl-2 family proteins induces regression of solid tumours,” Nature 2005; 435: 677-681, and cell cytotoxicity EC50 values were assessed using CellTiter Glo (Promega, Madison Wis.).

CCRF-HSB2 = test system: CCRF-HSB2
Method: as §1, §2

CEM/C1 = test system: CEM/C1
Method: as §1, §2

DOHH2 = conditions: DOHH-2
Method: as §1, §2

HL60 = test system: HL60
Method: as §1, §2

I9.2 = test system: I9.2
Method: as §1, §2

Jurkat = test system: Jurkat
Method: as §1, §2

K562 = test system: K562
Method: as §1, §2

KG1a = conditions: KG-1a
Method: as §1, §2

MEG-01 = test system: MEG-01
Method: as §1, §2

MOLT-4 = test system: MOLT-4
Method: as §1, §2

MV-4-11 = test system: MV-4-11
Method: as §1, §2

Pfeiffer = test system: Pfeiffer
Method: as §1, §2

RPMI 8226 = test system: RPMI 8226
Method: as §1, §2

RS4; 11 = test system: RS4; 11
Method: as §1, §2

Raji = test system: Raji
Method: as §1, §2

Reh = test system: Reh
Method: as §1, §2

Rs11380 = test system: Rs11380
Method: as §1, §2

SuDHL-4 = test system: SuDHL-4
Method: as §1, §2

SuPB15 = test system: SuPB15
Method: as §1, §2

U-937 = test system: U-937
Method: as §1, §2

WSU-NHL = test system: WSU-NHL
Method: as §1, §2

[1] = 10% human serum, 48 hours, read-out: EC50
[2] = Homo sapiens, read-out: Response Designation

CC1(C)CCC(c2ccc(Cl)cc2)=C(CN2CCN(c3ccc(C(=O)NS(=O)(=O)c4ccc(N[C@H](CCN5CCOCC5)CSc5ccccc5)c(S(=O)(=O)C(F)(F)F)c4)cc3)CC2)C1 [ABT-263, N-(4-(4-((2-(4-chlorophenyl)-5,5-dimethyl-1-cyclohex-1-en-1-yl)methyl)piperazin-1-yl)benzoyl)-4-(((1R)-3-(morpholin-4-yl)-1-((phenylsulfanyl)methyl)propyl)amino)-3-((trifluoromethyl)sulfonyl)benzenesulfonamide]
EC50 (CCRF-CEM; [1]): 0.765 µM | EC50 (CCRF-CEM; [2]): ≤ 4.8 µM | EC50 (CCRF-HSB2; CCRF-HSB-2, 10% human serum, 48 hours, read-out: EC50): 1.15 µM | EC50 (CCRF-HSB2; Homo sapiens, CCRF-HSB-2, read-out: Response Designation): ≤ 4.8 µM | EC50 (CEM/C1; [1]): 0.063 µM | EC50 (CEM/C1; [2]): ≤ 4.8 µM | EC50 (DOHH2; DoHH2, 10% human serum, 48 hours, read-out: EC50): 0.322 µM | EC50 (DOHH2; Homo sapiens, DOHH2, read-out: Response Designation): ≤ 4.8 µM | EC50 (HL60; HL-60, 10% human serum, 48 hours, read-out: EC50): 4.84 µM | EC50 (HL60; Homo sapiens, HL-60, read-out: Response Designation): ≤ 4.8 µM | EC50 (I9.2; [1]): 1.8 µM | EC50 (I9.2; [2]): ≤ 4.8 µM | EC50 (Jurkat; [1]): 3.35 µM | EC50 (Jurkat; [2]): ≤ 4.8 µM | EC50 (K562; [1]): 12.8 µM | EC50 (K562; [2]): > 4.8 µM | EC50 (KG1a; [2]): ≤ 4.8 µM | EC50 (KG1a; [1]): 0.243 µM | EC50 (MEG-01; Homo sapiens, MEG-01, read-out: Response Designation): > 4.8 µM | EC50 (MEG-01; Meg-01, 10% human serum, 48 hours, read-out: EC50): 6.04 µM | EC50 (MOLT-4; Homo sapiens, MOLT-4, read-out: Response Designation): ≤ 4.8 µM | EC50 (MOLT-4; Molt-4, 10% human serum, 48 hours, read-out: EC50): 0.385 µM | EC50 (MV-4-11; Homo sapiens, MV4-11, read-out: Response Designation): ≤ 4.8 µM | EC50 (MV-4-11; MV4-11, 10% human serum, 48 hours, read-out: EC50): 0.028 µM | EC50 (Pfeiffer; [1]): 8.81 µM | EC50 (Pfeiffer; [2]): > 4.8 µM | EC50 (RPMI 8226; [1]): 1.5 µM | EC50 (RPMI 8226; [2]): ≤ 4.8 µM | EC50 (RS4; 11; Homo sapiens, RS4;11, read-out: Response Designation): ≤ 4.8 µM | EC50 (RS4; 11; RS4, 11, 10% human serum, 48 hours, read-out: EC50): 0.095 µM | EC50 (Raji; [1]): 23.7 µM | EC50 (Raji; [2]): > 4.8 µM | EC50 (Reh; [1]): 0.434 µM | EC50 (Reh; [2]): ≤ 4.8 µM | EC50 (Rs11380; [1]): 0.145 µM | EC50 (Rs11380; [2]): ≤ 4.8 µM | EC50 (SuDHL-4; Homo sapiens, SU-DHL-4, read-out: Response Designation): ≤ 4.8 µM | EC50 (SuDHL-4; SU-DHL-4, 10% human serum, 48 hours, read-out: EC50): 1.04 µM | EC50 (SuPB15; Homo sapiens, SUP-B15, read-out: Response Designation): ≤ 4.8 µM | EC50 (SuPB15; SUP-B15, 10% human serum, 48 hours, read-out: EC50): 0.26 µM | EC50 (U-937; [1]): 33.9 µM | EC50 (U-937; [2]): > 4.8 µM | EC50 (WSU-NHL; [1]): 3.55 µM | EC50 (WSU-NHL; [2]): ≤ 4.8 µM
